# Laboratory results as given in patent US20020035260A1, “4-aza-steroids” (Novopharm Limited, priority 1997, published 2002).
# Values joined by “and” are separate entries in the source; they are usually repeats but may differ in a detail not shown here. Equal values may be shown once. Read-outs that look alike come from different tables or passages of the source.
# Key:
# Type in all cases: biochemical
# [1] = molecular target: T1, 5-α-reductase I enzyme (Rattus norvegicus, UniProt P24008); experiment: Rat 5-α-reductase I enzyme assay (rat prostate); conditions: range of IC50 values from different experiments; pH 6.5, 2 μM 14C testosterone
# T1 construct: Prostates, removed from 16 young male Sprague dawley rats (each weighing about 300-400 g), were minced and homogenized; from tissue; host or cells: rat prostate (Sprague Dawley), 140,000 g pellet
# T1 sequence (P24008 1-259): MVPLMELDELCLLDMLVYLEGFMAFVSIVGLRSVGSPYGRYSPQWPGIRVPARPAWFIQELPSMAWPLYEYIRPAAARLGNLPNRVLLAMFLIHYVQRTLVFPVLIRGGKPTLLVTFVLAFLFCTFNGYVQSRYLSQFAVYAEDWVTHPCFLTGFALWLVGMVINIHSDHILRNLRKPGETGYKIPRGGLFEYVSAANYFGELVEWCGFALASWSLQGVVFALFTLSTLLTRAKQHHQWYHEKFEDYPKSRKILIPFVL
# Protocol: (§1) Biochemical Assays were carried out to determine the inhibitory activities of various compounds of the previous examples on 5-α-reductase I enzyme isolated from male rate prostate and 5-α-reductase II enzyme isolated from rat epididymus and human prostate. These procedures were carried out following published literature procedures (H. Takami et al., J. Med. Chem., 39, pp 5047-5052; Tehming Liang, Margaret A. Cascieri et al., Endocrinology, 117, pp 571-579). Brief descriptions are as follows:
# (§2) Rat 5-α-reductase I enzyme assay. Prostates, removed from 16 young male Sprague dawley rats (each weighing about 300-400 g), were minced and homogenized at 0-4° C. in 3 tissue volumes of buffer (0.32 M sucrose, 1 mM dithiothreitol, and 20 mM phosphate buffer, pH 6.5) using a polytron homogenizer. The homogenate was centrifuged at 4° C. at 140,000 g for 1 hour. The resultant pellet, after washing with the homogenizing buffer was suspended in the same buffer and stored at −70° C. The assay was carried out in a final volume of 0.5 ml containing 20 mM phosphate buffer (pH 6.5), 1 mM dithiothreitol, 150 μM NADPH, 2 μM ^14C testosterone and the enzyme concentration (500 μg-1 mg) For conducting the inhibitory studies on a 5-α-reductase I, finasteride and other test compounds were added in 10 μl of ethanol to a concentration 10^−9 to 10^−5 with five to six points including control using duplicate for each point to the above reaction mixture. The incubations were done for 20 minutes at 37° C. The reactions were stopped by adding 2.0 ml of ethyl acetate containing testosterone, 5-α-dihydrotestosterone, and androstenedione (10 μg each). After centrifugation at 1000 g for 5 minutes, the upper ethyl acetate extract was transferred to a tube and then evaporated under nitrogen to dryness. The compounds were taken up in 50 μl of ethyl acetate and chromatographed on Whatman LK5DF silica GF TLC plates using ethyl acetate-cyclohexane (1:1). The respective TLC spots corresponding to testosterone and dihydrotestosterone (Rf value same as that of androstenedione) were scraped from the plate and taken in respective scintillation vials. They were counted in the Beckman scintillation counter model No. LS 6500 with counting efficiency of 95% for ^14C carbon. Finasteride was used as a known standard during all screening. The range of IC50 values for different test compounds obtained from different experiments is shown in Table 1 under the column, Rat Prostate Enzyme I IC50.
# [2] = molecular target: T2, 5-α-reductase II enzyme (Homo sapiens, UniProt P31213); experiment: Human 5-α-reductase II enzyme assay (human prostate); conditions: Tris-citrate pH 5.0
# T2 construct: Specimens of human prostates were quickly frozen in dry ice after collection and kept at −70° C. before isolation of the enzyme; from tissue; host or cells: human prostate specimens, particulate fraction
# T2 sequence (P31213 1-254): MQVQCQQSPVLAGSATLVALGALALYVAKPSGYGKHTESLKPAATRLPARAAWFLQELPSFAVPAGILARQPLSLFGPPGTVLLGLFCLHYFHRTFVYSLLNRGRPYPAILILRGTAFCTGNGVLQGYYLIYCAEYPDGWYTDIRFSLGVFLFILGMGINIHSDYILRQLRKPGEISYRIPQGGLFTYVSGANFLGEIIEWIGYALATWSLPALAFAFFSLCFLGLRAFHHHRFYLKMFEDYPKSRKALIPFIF
# Protocol: as §1
# (§3) Rat 5-α-reductase II enzyme assay: Epididymus, taken out during the isolation of the rat prostates during rat enzyme I assay, was stored at −70° C. Isolation of the enzyme and the assay were carried out following the procedure described above, except the reaction buffer used was 40 mM Tris-citrate, pH 4.5. The range of IC50 values for different test compounds obtained from different experiments is shown in Table 1 under the column, Rat Epididymus Enzyme II IC50.
# (§4) Human 5-α-reductase II enzyme assay: Specimens of human prostates were quickly frozen in dry ice after collection and kept at −70° C. before isolation of the enzyme. Isolation of the enzyme and the assay were carried out following a similar procedure as for the isolation of rat 5-α-reductase II enzyme with some modifications. During the isolation of the enzyme, 50 μM NADPH was added to the homogenizing buffer as a stabilizer. The enzyme was stored in the homogenizing buffer containing 20% glycerol. The enzyme reaction buffer used as 40 mM Tris-citrate buffer, pH 5.0. The range of IC50 values for different test compounds obtained from different experiments is shown in Table 1 under the column, Human Prostate Enzyme II IC50.
# [3] = molecular target: T3, 5-α-reductase II enzyme (Rattus norvegicus, UniProt P31214); experiment: Rat 5-α-reductase II enzyme assay (rat epididymus); conditions: range of IC50 values from different experiments; Tris-citrate pH 4.5
# T3 construct: from tissue; host or cells: rat epididymis (Sprague Dawley), particulate fraction
# T3 sequence (P31214 1-254): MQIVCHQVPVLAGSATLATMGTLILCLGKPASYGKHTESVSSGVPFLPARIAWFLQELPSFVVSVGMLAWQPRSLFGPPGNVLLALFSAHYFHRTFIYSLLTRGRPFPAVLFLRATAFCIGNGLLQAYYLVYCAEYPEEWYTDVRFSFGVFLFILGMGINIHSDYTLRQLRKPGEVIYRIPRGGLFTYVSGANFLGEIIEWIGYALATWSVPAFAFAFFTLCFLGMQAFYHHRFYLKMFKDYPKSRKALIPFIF
# Protocol: as §1, §2, §3
# [4] = molecular target: T4, 5-α-reductase type II (Homo sapiens, UniProt P31213); experiment: Activity against 5-α-reductase type II; conditions: statement in words, compared with finasteride
# T4 sequence (P31213 1-254): T2 sequence (P31213 1-254)
# Protocol: as §3, §4
# [5] = range of IC50 values from different experiments, read-out: Human Prostate Enzyme II IC50
Compound,IC50 [1],"IC50 [2, 5] [nM]",IC50 [3],activity against 5-α-reductase type II [4],IC50 ([2]; read-out: Human Prostate Enzyme II IC50) [nM],"IC50 ([2]; Human Prostate Enzyme II IC50, range of IC50 values from different experiments)"
"CC(C)(C)NC(=O)[C@H]1CC[C@H]2[C@@H]3[C@H](Cl)C[C@H]4NC(=O)CC[C@]4(C)[C@H]3CC[C@]12C [1,2-Dihydro-7-α-chloro-finasteride, 1,2-dihydro-7-α-chloro-finasteride]",53 to 99 nM,11.5 to 44,2.9 to 8.6 nM,–,–,–
"CC(C)(C)NC(=O)[C@H]1CC[C@H]2[C@@H]3[C@@H](O)C[C@H]4NC(=O)CC[C@]4(C)[C@H]3CC[C@]12C [1,2-Dihydro-7-β-hydroxy-finasteride, 1,2-dihydro-7-β-hydroxy-finasteride]",453 to 492 nM,536 to 755,567 to 891 nM,–,–,–
"CC(C)(C)NC(=O)[C@H]1C[C@@H](O)[C@H]2[C@@H]3CC[C@H]4NC(=O)CC[C@]4(C)[C@H]3CC[C@@]21C [1,2-Dihydro-15-β-hydroxy-finasteride, 1,2-dihydro-15β-hydroxy-finasteride]",351 to 468 nM,–,–,–,–,–
"CC(C)(C)NC(=O)[C@H]1CC[C@H]2[C@@H]3[C@H](N=[N+]=[N-])C[C@H]4NC(=O)C=C[C@]4(C)[C@H]3CC[C@]12C [7-α-Azido-finasteride, 7-α-azido-finasteride]",–,19 to 32,–,very high specific inhibitory activity,–,–
"CC(C)(C)NC(=O)[C@H]1CC[C@H]2[C@@H]3[C@H](Cl)C[C@H]4NC(=O)C=C[C@]4(C)[C@H]3CC[C@]12C [7-α-Chloro-finasteride, 7-α-chloro-finasteride]",306 to 350 nM,0.9 to 3.6,1.92 to 3.1 nM,considerably higher than that of finasteride itself,–,–
"CC(=O)O[C@H]1C[C@H]2NC(=O)C=C[C@]2(C)[C@H]2CC[C@]3(C)[C@@H](C(=O)NC(C)(C)C)CC[C@H]3[C@H]12 [7-β-Acetoxy-finasteride, 7-β-acetoxy-finasteride]",385 to 697 nM,175 to 362,135 to 357 nM,–,–,–
"Cc1ccc(S(=O)(=O)O[C@H]2C[C@H]3NC(=O)C=C[C@]3(C)[C@H]3CC[C@]4(C)[C@@H](C(=O)NC(C)(C)C)CC[C@H]4[C@H]23)cc1 [7-β-Tosyloxy-finasteride, 7-β-tosyloxy-finasteride]",1500 to 4300 nM,213 to 570,–,–,–,–
CC(C)(C)NC(=O)C1CCC2C3C(CCC12C)C1(C)C=CC(=O)NC1C[C@@H]3O (stereo partly drawn) [7-β-hydroxy-finasteride],811 to 1800 nM,62 to 64,106 nM,–,–,–
"CC(C)(C)NC(=O)[C@H]1CC=C2[C@@H]3CC[C@H]4NC(=O)C=C[C@]4(C)[C@H]3CC[C@@]21C [14,15-Dehydro-finasteride, 14,15-dehydro-finasteride]",50 to 67 nM,39 to 49.6,45 nM,–,–,–
"CC(=O)O[C@@H]1C[C@H](C(=O)NC(C)(C)C)[C@@]2(C)CC[C@H]3[C@@H](CC[C@H]4NC(=O)C=C[C@@]43C)[C@H]12 [15-β-Acetoxy-finasteride, 15-β-acetoxy-finasteride]",4200 to 5700 nM,–,1600 to 2700 nM,–,2010,–
CC(C)(C)NC(=O)C1CC(O)C2C3CCC4NC(=O)C=CC4(C)C3CCC12C (stereo not drawn) [15-β-hydroxy-finasteride],805 to 853 nM,50 to 59,640 nM,–,–,–
"CC(C)(C)NC(=O)C1CCC2C3CCC4NC(=O)C=CC4(C)C3CCC12C (stereo not drawn) [Finasteride, (5α, 17β)-(1,1-dimethyl-ethyl)-3-oxo-4-aza-androst-1-ene-17-carboxamide, reference compound]",11 to 38 nM and 13 to 30 nM,–,5.1 to 14.8 nM and 2.9 to 11.8 nM,–,–,2.7 to 10.6 nM and 3.3 to 7 nM
